Drawing on PubChem BioAssay AID248 (DTP/NCI, 2004), this text covers T/C for 6 compounds.

Structures are written as SMILES. Where “and” joins values, the source holds several entries; their conditions need not be identical. Equal entries are not always repeated. Inconclusive results and toxic doses are left out.

In this experiment the test system is L1210 leukemia ip in BDF1 mice, survival T/C. Put plainly: NCI In Vivo Anticancer Drug Screen. Data for tumor model L1210 Leukemia (intraperitoneal) in B6D2F1 (BDF1) mice. The settings on record: endpoint: mean survival time, higher = longer survival. Summed up: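 Tumor cells were implanted, animals were treated, and survival was followed. The result divides the treated measurement by the vehicle-control measurement.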

`CC(C)=CCC1=C(O)c2ccccc2C(=O)C1=O`: the T/C is, setting by setting: (dose: 0.5 mg/kg/injection, schedule: Q01DX Z (ip), vehicle: water) 91 % of control; (dose: 2.0 mg/kg/injection, schedule: Q01DX Z (ip), vehicle: water) 94 % of control; (dose: 8.0 mg/kg/injection, schedule: Q01DX Z (ip), vehicle: water) 91 % of control; (dose: 11.0 mg/kg/injection, schedule: Q01DX009 (ip), vehicle: carboxymethylcellulose (CMC)) 107 % of control; (dose: 11.0 mg/kg/injection, schedule: Q01DX009 (ip), vehicle: other) 95 % of control and 102 % of control; (dose: 15.0 mg/kg/injection, schedule: Q01DX Z (ip), vehicle: water) 88 % of control. Also, the T/C by setting is: (dose: 16.67 mg/kg/injection, schedule: Q#B X027 (ip), vehicle: water) 111 % of control; (dose: 16.67 mg/kg/injection, schedule: Q#B X027 (sc), vehicle: water) 97 % of control; (dose: 17.0 mg/kg/injection, schedule: Q01DX009 (ip), vehicle: carboxymethylcellulose (CMC)) 98 % of control; (dose: 17.0 mg/kg/injection, schedule: Q01DX009 (ip), vehicle: other) 94 % of control and 103 % of control; (dose: 20.0 mg/kg/injection, schedule: Q01DX Z (ip), vehicle: water) 96 % of control; (dose: 25.0 mg/kg/injection, schedule: Q01DX009 (ip), vehicle: carboxymethylcellulose (CMC)) 103 % of control. Moreover, the T/C (dose: 25.0 mg/kg/injection, schedule: Q01DX009 (ip), vehicle: other) was 95 % of control and 97 % of control; the T/C (dose: 25.0 mg/kg/injection, schedule: Q#A X Z (ip), vehicle: water) was 90 % of control; the T/C (dose: 30.0 mg/kg/injection, schedule: Q01DX Z (ip), vehicle: water) is 88 % of control; the T/C (dose: 33.33 mg/kg/injection, schedule: Q#B X027 (oral), vehicle: water) was 100 % of control; the T/C (dose: 33.33 mg/kg/injection, schedule: Q#B X027 (sc), vehicle: water) is 100 % of control; the T/C (dose: 37.5 mg/kg/injection, schedule: Q01DX009 (ip), vehicle: carboxymethylcellulose (CMC)) was 98 % of control. The T/C reads like this: (dose: 37.5 mg/kg/injection, schedule: Q01DX009 (ip), vehicle: other) 100 % of control and 102 % of control; (dose: 40.0 mg/kg/injection, schedule: Q01DX Z (ip), vehicle: water) 96 % of control; (dose: 50.0 mg/kg/injection, schedule: Q01DX015 (ip), vehicle: water) 95 % of control; (dose: 50.0 mg/kg/injection, schedule: Q#A X Z (ip), vehicle: water) 97 % of control; (dose: 56.0 mg/kg/injection, schedule: Q01DX009 (ip), vehicle: carboxymethylcellulose (CMC)) 102 % of control; (dose: 60.0 mg/kg/injection, schedule: Q01DX Z (ip), vehicle: water) 94 % of control. For the same compound, the T/C reads like this: (dose: 66.67 mg/kg/injection, schedule: Q#B X027 (ip), vehicle: water) 120 % of control; (dose: 66.67 mg/kg/injection, schedule: Q#B X027 (oral), vehicle: water) 97 % of control; (dose: 66.67 mg/kg/injection, schedule: Q#B X027 (sc), vehicle: water) 100 % of control; (dose: 84.0 mg/kg/injection, schedule: Q01DX009 (ip), vehicle: other) 102 % of control and 104 % of control; (dose: 90.0 mg/kg/injection, schedule: Q01DX Z (ip), vehicle: water) 92 % of control; (dose: 100.0 mg/kg/injection, schedule: Q01DX Z (oral), vehicle: water) 91 % of control. Also, the T/C (dose: 100.0 mg/kg/injection, schedule: Q#A X Z (ip), vehicle: water) was 95 % of control; the T/C (dose: 125.0 mg/kg/injection, schedule: Q#A X018 (oral), vehicle: other) is 102 % of control; the T/C (dose: 126.0 mg/kg/injection, schedule: Q01DX009 (ip), vehicle: other) is 101 % of control and 104 % of control; the T/C (dose: 133.33 mg/kg/injection, schedule: Q#B X027 (oral), vehicle: water) was 102 % of control; the T/C (dose: 135.0 mg/kg/injection, schedule: Q01DX Z (ip), vehicle: water) is 94 % of control; the T/C (dose: 189.0 mg/kg/injection, schedule: Q01DX009 (ip), vehicle: other) is 109 % of control and 122 % of control. The T/C is 114 % of control (dose: 200.0 mg/kg/injection, schedule: Q01DX001 (oral), vehicle: other); 102 % of control (dose: 200.0 mg/kg/injection, schedule: Q01DX Z (ip), vehicle: water); 96 % of control (dose: 200.0 mg/kg/injection, schedule: Q01DX Z (oral), vehicle: water); 97 % of control (dose: 250.0 mg/kg/injection, schedule: Q#A X018 (oral), vehicle: other); 98 % of control (dose: 300.0 mg/kg/injection, schedule: Q01DX Z (oral), vehicle: water); 100 % of control (dose: 400.0 mg/kg/injection, schedule: Q01DX001 (oral), vehicle: other). Besides, the T/C is 98 % of control (dose: 600.0 mg/kg/injection, schedule: Q01DX001 (oral), vehicle: other) and 96 % of control (dose: 900.0 mg/kg/injection, schedule: Q01DX001 (oral), vehicle: other).

With `CCCCCCCCCCOP(=S)(N1CC1)N1CC1`, the T/C reads like this: (dose: 2.5 mg/kg/injection, schedule: Q01DX Z (ip), vehicle: carboxymethylcellulose (CMC)) 107 % of control; (dose: 5.0 mg/kg/injection, schedule: Q01DX Z (ip), vehicle: carboxymethylcellulose (CMC)) 118 % of control; (dose: 20.0 mg/kg/injection, schedule: Q01DX Z (ip), vehicle: carboxymethylcellulose (CMC)) 232 % of control and 260 % of control; (dose: 40.0 mg/kg/injection, schedule: Q01DX Z (ip), vehicle: carboxymethylcellulose (CMC)) 150 % of control.

Consider `O=C(O)CCCCCNC(=O)OCc1ccccc1`, for which the T/C reads like this: (dose: 100.0 mg/kg/injection, schedule: Q01DX009 (ip), vehicle: gum acacia) 102 % of control; (dose: 100.0 mg/kg/injection, schedule: Q04DX003 (ip), vehicle: gum acacia) 91 % of control; (dose: 200.0 mg/kg/injection, schedule: Q01DX009 (ip), vehicle: gum acacia) 103 % of control; (dose: 200.0 mg/kg/injection, schedule: Q04DX003 (ip), vehicle: gum acacia) 93 % of control; (dose: 400.0 mg/kg/injection, schedule: Q01DX009 (ip), vehicle: gum acacia) 86 % of control; (dose: 400.0 mg/kg/injection, schedule: Q04DX003 (ip), vehicle: gum acacia) 91 % of control.

For `CCN(CC)CC(=O)NCC(CCCN1CCCCC1)(c1cccc2ccccc12)C(C)C` (stereo unspecified), the T/C runs as follows: (dose: 12.5 mg/kg/injection, schedule: Q01DX009 (ip), vehicle: saline) 91 % of control; (dose: 12.5 mg/kg/injection, schedule: Q04DX003 (ip), vehicle: saline) 98 % of control; (dose: 25.0 mg/kg/injection, schedule: Q01DX009 (ip), vehicle: saline) 90 % of control; (dose: 25.0 mg/kg/injection, schedule: Q04DX003 (ip), vehicle: saline) 95 % of control; (dose: 50.0 mg/kg/injection, schedule: Q01DX009 (ip), vehicle: saline) 86 % of control; (dose: 50.0 mg/kg/injection, schedule: Q04DX003 (ip), vehicle: saline) 96 % of control.

Consider `COc1ccc(C(=O)C(C)CC(=O)O)cc1OC` (stereo unspecified), for which the T/C by setting is: (dose: 75.0 mg/kg/injection, schedule: Q01DX009 (ip), vehicle: Klucel (hydroxypropylcellulose) (HPC)) 102 % of control; (dose: 150.0 mg/kg/injection, schedule: Q01DX009 (ip), vehicle: Klucel (hydroxypropylcellulose) (HPC)) 94 % of control; (dose: 300.0 mg/kg/injection, schedule: Q01DX009 (ip), vehicle: Klucel (hydroxypropylcellulose) (HPC)) 91 % of control.

Consider `N/N=C\c1cnnc2ccccc12`, for which the T/C by setting is: (dose: 100.0 mg/kg/injection, schedule: Q01DX001 (ip), vehicle: saline) 95 % of control; (dose: 200.0 mg/kg/injection, schedule: Q01DX001 (ip), vehicle: saline) 95 % of control; (dose: 400.0 mg/kg/injection, schedule: Q01DX001 (ip), vehicle: saline) 98 % of control.
